Results reported in patent US20250313559A1 (Bayer Aktiengesellschaft, priority 2024, published 2025).
Where two headings read alike, the source gives them in different places.

Test system: patients with heart failure and a left ventricular ejection fraction ≥40%
[1] = No SGLT2i Use at baseline, n = 2,610
[2] = SGLT2i Use at baseline, n = 393

CCOc1ncc(C)c2c1[C@H](c1ccc(C#N)cc1OC)C(C(N)=O)=C(C)N2 [finerenone, (4S)-4-(4-cyano-2-methoxyphenyl)-5-ethoxy-2,8-dimethyl-1,4-dihydro-1,6-naphthyridine-3-carboxamide]
Absolute risk reduction, primary outcome (HFimpEF (history of LVEF<40%)): 9.2 per 100 py | Absolute risk reduction, primary outcome (LVEF consistently 40% (no HFimpEF)): 2.5 per 100 py | All-cause death, HR (95% CI) finerenone vs placebo (No SGLT2i Use at baseline): 0.94 (0.82, 1.07) | Renal composite endpoint, HR (95% CI) finerenone vs placebo (No SGLT2i Use at baseline): 1.43 (0.98, 2.08) | Total worsening HF events, RR (95% CI) finerenone vs placebo (No SGLT2i Use at baseline): 0.83 (0.71, 0.97) | Renal composite endpoint, Rate (per 100 py) [1]: 0.8 per 100 py | Total worsening HF events, Rate (per 100 py) [1]: 13.0 per 100 py | All-cause death, HR (95% CI) finerenone vs placebo (SGLT2i Use at baseline): 0.90 (0.64, 1.27) | Renal composite endpoint, Rate (per 100 py) [2]: 1.3 per 100 py | Total worsening HF events, Events [2]: 194 | Total worsening HF events, Rate (per 100 py) [2]: 22.0 per 100 py | Mean systolic blood pressure lower than in the placebo group (at 6 months): 3.4 mm Hg | All-cause death, event rate per 100 PY (bilirubin Tertile 2 0.5-0.6 mg/dL, finerenone N = 970): 6.4 per 100 PY | All-cause death, event rate per 100 PY (bilirubin Tertile 3 ≥0.7 mg/dL, finerenone N = 1,009): 6.6 per 100 PY | Hyperkalemia leading to Hospitalization - no. (both, human, in vivo): 24 | Number of subjects with a treatment-emergent SAE: Acute kidney injury (both, human, in vivo): 54 | Number of subjects with a treatment-emergent SAE: Anaemia (both, human, in vivo): 34 | Number of subjects with a treatment-emergent SAE: Angina pectoris (both, human, in vivo): 17 | Number of subjects with a treatment-emergent SAE: Angina unstable (both, human, in vivo): 38 | Number of subjects with a treatment-emergent SAE: Atrial fibrillation (both, human, in vivo): 77 | Number of subjects with a treatment-emergent SAE: Cardiac failure (both, human, in vivo): 18 | Number of subjects with a treatment-emergent SAE: Cellulitis (both, human, in vivo): 17 | Number of subjects with a treatment-emergent SAE: Chest pain (both, human, in vivo): 23 | Number of subjects with a treatment-emergent SAE: Chronic obstructive pulmonary disease (both, human, in vivo): 18 | Number of subjects with a treatment-emergent SAE: Fall (both, human, in vivo): 15 | Number of subjects with a treatment-emergent SAE: Femur fracture (both, human, in vivo): 15 | Number of subjects with a treatment-emergent SAE: Gastrointestinal haemorrhage (both, human, in vivo): 17 | Number of subjects with a treatment-emergent SAE: Hyperkalemia (both, human, in vivo): 19 | Number of subjects with a treatment-emergent SAE: Pneumonia (both, human, in vivo): 87 | Number of subjects with a treatment-emergent SAE: Syncope (both, human, in vivo): 25 | Number of subjects with treatment-emergent AE leading to treatment discontinuation: Asthenia (both, human, in vivo): 5 | Number of subjects with treatment-emergent AE leading to treatment discontinuation: Diarrhoea (both, human, in vivo): 4 | Number of subjects with treatment-emergent AE leading to treatment discontinuation: Dyspnoea (both, human, in vivo): 3 | Number of subjects with treatment-emergent AE leading to treatment discontinuation: Hyperkalaemia (both, human, in vivo): 12 | Number of subjects with treatment-emergent AE leading to treatment discontinuation: Hypotension (both, human, in vivo): 3 | Number of subjects with treatment-emergent AE leading to treatment discontinuation: Nausea (both, human, in vivo): 3 | Number of subjects with treatment-emergent AE leading to treatment discontinuation: Renal impairment (both, human, in vivo): 5 | Proportion of patients experiencing 15% decline in eGFR (both, human, in vivo): 20.6% | Subjects with a treatment-emergent SAE (%): Acute kidney injury (both, human, in vivo): 1.8% | Subjects with a treatment-emergent SAE (%): Anaemia (both, human, in vivo): 1.1% | Subjects with a treatment-emergent SAE (%): Angina pectoris (both, human, in vivo): 0.6% | Subjects with a treatment-emergent SAE (%): Angina unstable (both, human, in vivo): 1.3% | Subjects with a treatment-emergent SAE (%): Atrial fibrillation (both, human, in vivo): 2.6% | Subjects with a treatment-emergent SAE (%): Cardiac failure (both, human, in vivo): 0.6% | Subjects with a treatment-emergent SAE (%): Cellulitis (both, human, in vivo): 0.6% | Subjects with a treatment-emergent SAE (%): Chest pain (both, human, in vivo): 0.8% | Subjects with a treatment-emergent SAE (%): Chronic obstructive pulmonary disease (both, human, in vivo): 0.6% | Subjects with a treatment-emergent SAE (%): Coronary artery disease (both, human, in vivo): 0.7% | Subjects with a treatment-emergent SAE (%): Fall (both, human, in vivo): 0.5% | Subjects with a treatment-emergent SAE (%): Femur fracture (both, human, in vivo): 0.5% | Subjects with a treatment-emergent SAE (%): Gastrointestinal haemorrhage (both, human, in vivo): 0.6% | Subjects with a treatment-emergent SAE (%): Hyperkalemia (both, human, in vivo): 0.6% | Subjects with a treatment-emergent SAE (%): Pneumonia (both, human, in vivo): 2.9% | Subjects with a treatment-emergent SAE (%): Syncope (both, human, in vivo): 0.8% | Subjects with treatment-emergent AE leading to treatment discontinuation (%): Asthenia (both, human, in vivo): (0.2%) | Subjects with treatment-emergent AE leading to treatment discontinuation (%): Diarrhoea (both, human, in vivo): (0.1%) | Subjects with treatment-emergent AE leading to treatment discontinuation (%): Dyspnoea (both, human, in vivo): (0.1%) | Subjects with treatment-emergent AE leading to treatment discontinuation (%): Hyperkalaemia (both, human, in vivo): (0.4%) | Subjects with treatment-emergent AE leading to treatment discontinuation (%): Hypotension (both, human, in vivo): (0.1%) | Subjects with treatment-emergent AE leading to treatment discontinuation (%): Nausea (both, human, in vivo): (0.1%) | Subjects with treatment-emergent AE leading to treatment discontinuation (%): Renal impairment (both, human, in vivo): (0.2%) | Systolic blood pressure <100 mm Hg - no. (both, human, in vivo): 538 | Systolic BP, mean difference (by one month, compared with placebo): −2.8 mm Hg | Change in bilirubin during follow-up (early after randomization): sustained reduction in bilirubin | Change in KCCQ clinical summary score at 6, 9 and 12 mo (least squares mean change) (finerenone group): +8.0 ± 0.3 | Death from any cause - % (finerenone group): (16.4%)
